Results as given in patent US6555563B1, “Heteroaryl substituted amidinyl and imidazolyl compounds and methods employing same for the treatment of inflammation” (Medinox, Inc., priority 2001, dated 2003).

Tests used:
[1] = molecular target: T1, COX-1 (Ovis aries, UniProt P05979); assay: Assay for COX-1 activity (Ovine), PGE2 formation by ELISA; type: biochemical; settings: for COX-1 10 nM (% inhibition) / inhibition at 0.01 µM: 10 nM compound; for COX-1 50 nM (% inhibition) / inhibition at 0.05 µM: 50 nM compound; for IC50: first number of cell COX1/COX2; for inhibition at 0.01 µM: read-out: COX-1 10 nM (% inhibition); for inhibition at 0.05 µM: read-out: COX-1 50 nM (% inhibition)
T1 construct: host or cells: insect cells (membranes, CHAPS-solubilized)
T1 sequence (P05979 25-600): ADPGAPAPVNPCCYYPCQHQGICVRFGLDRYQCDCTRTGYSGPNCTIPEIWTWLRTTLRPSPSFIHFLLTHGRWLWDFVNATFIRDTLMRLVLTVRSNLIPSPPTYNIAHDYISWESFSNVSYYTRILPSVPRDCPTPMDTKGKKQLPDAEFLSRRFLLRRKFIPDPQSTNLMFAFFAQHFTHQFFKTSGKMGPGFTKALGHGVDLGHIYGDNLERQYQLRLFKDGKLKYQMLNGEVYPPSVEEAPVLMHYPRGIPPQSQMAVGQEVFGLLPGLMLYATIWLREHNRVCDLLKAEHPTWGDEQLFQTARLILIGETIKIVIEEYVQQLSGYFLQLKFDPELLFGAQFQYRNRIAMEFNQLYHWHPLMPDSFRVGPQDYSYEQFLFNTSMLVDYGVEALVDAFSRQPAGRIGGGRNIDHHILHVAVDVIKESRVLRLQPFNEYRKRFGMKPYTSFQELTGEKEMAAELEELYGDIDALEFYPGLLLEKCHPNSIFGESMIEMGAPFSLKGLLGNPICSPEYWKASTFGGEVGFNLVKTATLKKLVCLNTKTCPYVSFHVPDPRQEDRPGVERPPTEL
Procedure: (§1) COX activity was assayed as PGE2 formed/μg protein/time using ELISA to detect prostaglandin release. CHAPS-solubilized insect cell membranes containing the appropriate COX enzyme were incubated in a potassium phosphate buffer (50 mM, pH 8.0) containing Tris-HCl, EDTA, phenol, and heme with the addition of arachidonic acid (10 μM). Compounds were pre-incubated with the enzyme for 5-10 minutes prior to the addition of arachidonic acid. Any reaction between the arachidonic acid and the enzyme was stopped after two minutes at 37° C. The PGE2 formed was measured by standard ELISA technology (Cayman Chemical).

[2] = molecular target: T2, COX-2 (Ovis aries, UniProt P79208); assay: Assay for COX-2 activity (Ovine), PGE2 formation by ELISA; type: biochemical; settings: for COX-2 10 nM (% inhibition) / inhibition at 0.01 µM: 10 nM compound; for COX-2 50 nM (% inhibition) / inhibition at 0.05 µM: 50 nM compound; for Selectivity: IC50 COX1 / IC50 COX2; for IC50: second number of cell COX1/COX2; for inhibition at 0.01 µM: read-out: COX-2 10 nM (% inhibition); for inhibition at 0.05 µM: read-out: COX-2 50 nM (% inhibition)
T2 construct: host or cells: insect cells (membranes, CHAPS-solubilized)
T2 sequence (P79208 17-603): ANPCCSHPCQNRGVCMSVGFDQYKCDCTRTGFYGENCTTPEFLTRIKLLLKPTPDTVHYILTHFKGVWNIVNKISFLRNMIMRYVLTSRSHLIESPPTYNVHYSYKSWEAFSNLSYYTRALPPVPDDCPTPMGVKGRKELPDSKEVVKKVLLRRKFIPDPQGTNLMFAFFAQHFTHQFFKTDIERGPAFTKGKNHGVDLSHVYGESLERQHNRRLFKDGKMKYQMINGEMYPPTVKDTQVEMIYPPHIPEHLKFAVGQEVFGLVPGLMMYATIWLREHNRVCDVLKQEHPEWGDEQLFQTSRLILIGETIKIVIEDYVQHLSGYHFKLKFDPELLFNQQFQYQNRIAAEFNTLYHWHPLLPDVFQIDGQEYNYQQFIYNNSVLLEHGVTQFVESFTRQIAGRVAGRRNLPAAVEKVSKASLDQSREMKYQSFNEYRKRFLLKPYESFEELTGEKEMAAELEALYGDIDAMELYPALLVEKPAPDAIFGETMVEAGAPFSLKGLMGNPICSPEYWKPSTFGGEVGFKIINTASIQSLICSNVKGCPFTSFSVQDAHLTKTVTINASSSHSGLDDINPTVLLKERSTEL
Procedure: as §1

[3] = Pharmacokinetics after oral administration in rats; type: in vivo, Male Sprague Dawley rats; settings: rat
Procedure: The animals are housed, fed and cared for according to the Guidelines of the […] Council on Animal Care. Male Sprague Dawley rats (250-300 g) are fasted overnight prior to each PO blood level study. The rats are placed in the restrainer one at a time and the box firmly secured. Compounds are prepared as required, in a standard dosing volume of 500 μL/250 g, and administered orally by passing a 16 gauge, 3″ gavaging needle into the stomach. Rats are catheterized at the carotid at least one day before drug administration and flushed with 30% PVP (400 U/mL of heparin) to prevent clotting in the tip. 250 μL blood samples are collected by unhooking the flush syringe and letting the blood flow freely in centrifuge tube at predetermined time points. The tubes should be centrifuged at 13,000 rpm for 10 min at 4° C. The plasma samples are collected in microcentrifuge tubes and stored immediately at −20° C. until analysis or analyzed immediately. Typical time points for determination of rat blood levels after PO dosing are: 30 min, 1 h, 3 h, 5 h, 7 h, 23 h, 25 h, 28 h, 31 h. A 100 μL aliquot of plasma sample is mixed with 150 μL of acetonitrile. After vortex and centrifuge, 200 μL of the supernatant is dried up under Speed Vac. The residue is reconstituted with 100 μL of methanol. After vortex and centrifuge again, 25 μL of supernatant is analyzed by C-18 HPLC column using UV detector. Quantitation is done relative to a clean blood sample spiked with a known quantity of drug.

[4] = system: adjuvant-induced arthritis in rats; assay: Adjuvant-induced arthritis rat model, inhibition of paw swelling; type: in vivo, Male Lewis rats; settings: oral, daily, days 8-15; paw volume day 15

COX-1 10 nM (% inhibition) [1] | COX-1 50 nM (% inhibition) [1] | IC50 [1] | COX-2 10 nM (% inhibition) [2] | COX-2 50 nM (% inhibition) [2] | Selectivity [2] | IC50 [2] | half-life compared with Celecoxib (in words) [3] | inhibition at 0.01 µM [1] | inhibition at 0.05 µM [1] | inhibition at 0.01 µM [2] | inhibition at 0.05 µM [2] | selectivity for the inhibition of COX-2 over COX-1 (in words) [2] | pharmacology (pharmacokinetic) profile (in words) [3] | Molecule | potency in controlling inflammation (in words) [4]
23% | 52% | 36 nM | 84% | 100% | 11 | 3.3 nM | longer half-life | – | – | – | – | – | – | N-[4-(Aminosulfonyl)phenyl]-3-[2-(4-fluorophenyl)-1,3,4-thiadiazol-5-yl]carboximidamide [Example 33] | –
31% | – | 62 nM | 98% | – | 12 | 5.1 nM | – | – | – | – | – | – | – | CS(=O)(=O)c1ccc(-n2cc(C(F)(F)F)nc2-c2nnc(Nc3ccccc3)s2)cc1 [Example 52, 1-[4-(Methylsulfonyl)phenyl]-2-[2-(N-anilino)-1,3,4-thiadiazol-5-yl]-4-(trifluoromethyl)-1H-imidazole] | –
– | – | – | – | – | – | – | – | 2% | – | – | – | – | – | Cc1onc(-c2ccccc2)c1-c1ccc(S(N)(=O)=O)cc1 [Valdecoxib, reference compound] | –
– | – | 27 nM | – | – | 12 | 2.3 nM | – | 30% | 45% | 95% | 100% | – | – | CS(=O)(=O)c1ccc(-n2cc(C(F)(F)F)nc2-c2nnc(-c3ccccc3)s2)cc1 [Example 44, 1-[4-(Methylsulfonyl)phenyl]-2-(2-phenyl-1,3,4-thiadiazol-5-yl)-4-(trifluoromethyl)-1H-imidazole] | –
15% | 45% | 79 nM | 85% | 94% | 17 | 4.8 nM | longer half-life | – | – | – | – | – | – | N=C(Nc1ccc(S(N)(=O)=O)cc1)c1nnc(-c2ccccc2)s1 [Example 32, N-[4-(Aminosulfonyl)phenyl]-3-[2-(phenyl)-1,3,4-thiadiazol-5-yl]carboximidamide] | –
– | – | 36 nM | – | – | 90 | 0.4 nM | longer half-life | 10% | 25% | 84% | 100% | good selectivity | excellent pharmacology profile | NS(=O)(=O)c1ccc(-n2cc(C(F)(F)F)nc2-c2nnc(-c3ccccc3)s2)cc1 [Example 48, 1-[4-(Aminosulfonyl)phenyl]-2-[2-(phenyl)-1,3,4-thiadiazol-5-yl]-4-(trifluoromethyl)-1H-imidazole] | good potency in controlling inflamation
